Laboratory results taken from patent US3932459A, “Novel cyclopropanecarboxylic acid esters” (Sumitomo Chemical Company, Limited, priority 1973, dated 1976).
Values after ≈ are worked out from the molar mass of the structure shown.

Experiments:
[1] = system: house-fly adults (Musca domestica); experiment: Oil spray, Campbel's turn table apparatus, house-fly adults (Experiment 1); type: in vivo; conditions: for LC50: Musca domestica, read-out: LC50 (50% lethal concentration); for Relative efficacy: corresponding dl-trans-chrysanthemic acid ester (control) = 1.0
Protocol: The dl-trans isomer of each of the present compounds (1), (2), (4) and (7), and the corresponding dl-trans-chrysanthemic acid esters were individually dissolved in deodorized kerosene to prepare oil sprays of required concentration.
5 ml of each of the oil sprays were sprayed, using Campbel's turn table apparatus ("Soap and Sanitary Chemicals," Vol. 14, No. 6, 119, 1938). Twenty seconds after spraying, the shutter was opened, and about 100 house-fly adults (Musca domestica) per group were exposed to the descending mist for 10 minutes and then transferred to the observation cage. In the cage, the flies were fed and allowed to stand for one day at room temperature.
Thereafter, the number of killed flies was counted to calculate the mortality thereof.

[2] = system: green rice leafhoppers (Nephotettix cincpriceps); experiment: Knock-down of green rice leafhoppers on treated rice seedlings (Experiment 3); type: in vivo; conditions: 400-fold aqueous diluted solution of 20% emulsifiable concentrate
Protocol: Each of the present compounds (1) to (7), and the corresponding chrysanthemic acid esters were individually formulated into a 20% emulsifiable concentrate by usual methods.
About 20 rice seedlings were grown up to a 3- to 4-leave stage in a flower pot of 10 cm in diameter, and the 400-fold aqueous diluted solution of each emulsifiable concentrate was applied thereto by means of a turn table.
After air-drying, each pot was placed in a 5 liter glass beaker and covered with gauze at the top. Then, 20 green rice leafhoppers (Nephotettix cincpriceps) were liberated therein and the number of knocked down insects were counted at definite time intervals.

[3] = system: fourth instar larvae of diamond-back moth (Plutella maculipennis); experiment: Emulsifiable concentrate sprayed on chinese cabbage leaves, diamond-back moth larvae (Experiment 2); type: in vivo; conditions: for LC50: Plutella, 48 h, 20% emulsifiable concentrate diluted with water, after 2 days, read-out: LC50 (50% lethal concentration); for Relative efficacy: corresponding chrysanthemic acid ester (control) = 1.0
Protocol: Each of the present compounds (1), (2) and (5), and the corresponding chrysanthemic acid esters were individually formulated into a 20% emulsifiable concentrate by usual methods.
10 ml of each of the emulsifiable concentrates which had been diluted with water to the required concentration were sprayed on to four leaves of chinese cabbage grown up to a 3- to 4-leave stage. Then the leaves were placed in a glass Petri dish of 14 cm in diameter and 7 cm high, and 10 fourth instar larvae of diamond-back moth (Plutella maculipennis) were liberated therein. After 2 days, the dead and alive were counted.

insects = conditions: J. Farkas et al., Chem. Listy 52, 688, 1958; cited from earlier work

| Compound | LC50 ([1]; 24 h) [µg/mL] | Relative efficacy [1] | KT50 (a time required for 50% knock-down) [2] [min] | also measured |
| --- | --- | --- | --- | --- |
| CC(C)=C[C@@H]1[C@@H](C(=O)OCc2ccc(Oc3ccccc3)s2)C1(C)C (relative stereo) | 540 (≈ 1510 µM) | 1.0 |  |  |
| CC(C)=CC1C(C(=O)OCc2csc(Cc3ccccc3)c2)C1(C)C (stereo not shown) |  |  | 53 |  |
| C=CCc1ccc(COC(=O)C2C(C=C(C)C)C2(C)C)s1 (stereo not shown) |  |  | 40 |  |
| CC(C)=CC1C(C(=O)OCc2cc3c(s2)CCCC3)C1(C)C (stereo not shown) |  |  | 46 |  |
| C#CCc1ccc(COC(=O)C2C(C=C(Cl)Cl)C2(C)C)s1 (stereo not shown) [Present compound (7), 5-Propargyl-2-thenyl 2',2'-dimethyl-3'-(2",2"-dichlorovinyl)-cyclopropanecarboxylate] |  |  | 15 |  |
| C#CCc1ccc(COC(=O)C2C(C=C(C)C)C2(C)C)s1 (stereo not shown) |  |  | 38 |  |
| Pyrethrin |  |  |  | LC50 (50% lethal concentration) ([1]; house fly, in vivo, 24 h): 216 mg/100 ml |
| CC(C)=C[C@@H]1[C@@H](C(=O)OCc2cc3c(s2)CCCC3)C1(C)C (relative stereo) | 834 (≈ 2620 µM) | 1.0 |  |  |
| CC(C)=CC1C(C(=O)OCc2ccc(Oc3ccccc3)s2)C1(C)C (stereo not shown) |  |  | 45 | LC50 [3]: 97 µg/mL (≈ 272 µM); Relative efficacy [3]: 1.0 |
| CC(C)=CC1C(C(=O)OCc2cc3c(s2)CCC3)C1(C)C (stereo not shown) |  |  | 43 | LC50 [3]: 114 µg/mL (≈ 374 µM); Relative efficacy [3]: 1.0 |
| CC(C)=CC1C(C(=O)OCc2ccc(Cc3ccccc3)s2)C1(C)C (stereo not shown) |  |  | 37 | LC50 [3]: 85 µg/mL (≈ 240 µM); Relative efficacy [3]: 1.0 |
| CC1(C)C(C=C(Cl)Cl)C1C(=O)OCc1ccc(Cc2ccccc2)s1 (stereo not shown) [Present compound (1), 5-benzyl-2-thenyl 2',2'-dimethyl-3'-(2",2"-dichlorovinyl)-cyclopropanecarboxylate] |  |  | 17 | LC50 [3]: 28 µg/mL (≈ 70.8 µM); Relative efficacy [3]: 3.0 |
| CC1(C)C(C=C(Cl)Cl)C1C(=O)OCc1csc(Cc2ccccc2)c1 (stereo not shown) [Present compound (3), 5-Benzyl-3-thenyl 2',2'-dimethyl-3'-(2",2"-dichlorovinyl)-cyclopropanecarboxylate] |  |  | 30 |  |
| CC1(C)C(C=C(Cl)Cl)C1C(=O)OCc1ccc(Oc2ccccc2)s1 (stereo not shown) [Present compound (2), 5-Phenoxy-2-thenyl 2',2'-dimethyl-3'-(2",2"-dichlorovinyl)-cyclopropanecarboxylate] |  |  | 28 | LC50 [3]: 37 µg/mL (≈ 93.1 µM); Relative efficacy [3]: 2.6 |
| CC1(C)[C@H](C=C(Cl)Cl)[C@H]1C(=O)OCc1ccc(Oc2ccccc2)s1 (relative stereo) [dl-Trans isomer of present compound (2), 5-Phenoxy-2-thenyl 2',2'-dimethyl-3'-(2",2"-dichlorovinyl)-cyclopropanecarboxylate] | 135 (≈ 340 µM) | 4.0 |  |  |
| CC(C)=C[C@@H]1[C@@H](C(=O)OCc2ccc(Cc3ccccc3)s2)C1(C)C (relative stereo) | 386 (≈ 1090 µM) | 1.0 |  |  |
| C#CCc1ccc(COC(=O)[C@@H]2[C@@H](C=C(Cl)Cl)C2(C)C)s1 (relative stereo) [dl-Trans isomer of present compound (7), 5-Propargyl-2-thenyl 2',2'-dimethyl-3'-(2",2"-dichlorovinyl)-cyclopropanecarboxylate] | 205 (≈ 597 µM) | 4.2 |  |  |
| CC(C)=CC1C(C(=O)OCc2ccc(C3C=CCC3)s2)C1(C)C (stereo not shown) |  |  | 40 |  |
| C=CCc1ccc(COC(=O)C2C(C=C(Cl)Cl)C2(C)C)s1 (stereo not shown) [Present compound (6), 5-Allyl-2-thenyl 2',2'-dimethyl-3'-(2",2"-dichlorovinyl)-cyclopropanecarboxylate] |  |  | 19 |  |
| CC1(C)[C@H](C=C(Cl)Cl)[C@H]1C(=O)OCc1cc2c(s1)CCCC2 (relative stereo) [dl-Trans isomer of present compound (4), 4-5-Tetramethylene-2-thenyl 2',2'-dimethyl-3'-(2",2"-dichlorovinyl)-cyclopropanecarboxylate] | 217 (≈ 604 µM) | 3.8 |  |  |
| CC1(C)C(C=C(Cl)Cl)C1C(=O)OCc1cc2c(s1)CCC2 (stereo not shown) [Present compound (5), 4,5-Trimethylene-2-thenyl 2',2'-dimethyl-3'-(2",2"-dichlorovinyl)-cyclopropanecarboxylate] |  |  | 21 | LC50 [3]: 47 µg/mL (≈ 136 µM); Relative efficacy [3]: 2.4 |
| C=CCC1=C(C)C(OC(=O)C2C(C=C(Cl)Cl)C2(C)C)CC1=O (stereo not shown) [allethronyl ester of the acid] |  |  |  | insecticidal activity (insects): close to that of chrysanthemic acid ester |
| CC1(C)C(C=C(Cl)Cl)C1C(=O)OCc1cc2c(s1)CCCC2 (stereo not shown) [Present compound (4), 4-5-Tetramethylene-2-thenyl 2',2'-dimethyl-3'-(2",2"-dichlorovinyl)-cyclopropanecarboxylate] |  |  | 24 |  |
| CC1(C)[C@H](C=C(Cl)Cl)[C@H]1C(=O)OCc1ccc(Cc2ccccc2)s1 (relative stereo) [dl-Trans isomer of present compound (1), 5-benzyl-2-thenyl 2',2'-dimethyl-3'-(2",2"-dichlorovinyl)-cyclopropanecarboxylate] | 90 (≈ 228 µM) | 4.3 |  |  |
| C#CCc1ccc(COC(=O)[C@@H]2[C@@H](C=C(C)C)C2(C)C)s1 (relative stereo) | 858 (≈ 2840 µM) | 1.0 |  |  |
| CC1(C)C(C=C(Cl)Cl)C1C(=O)OCc1ccc(C2C=CCC2)s1 (stereo not shown) [Present compound (8), 5-(2'-cyclopentene-1'-yl)-2-thenyl 2",2"-dimethyl-3"-(2"',2"'-dichlorovinyl)-cyclopropanecarboxylate] |  |  | 19 |  |
